Assays:
CDK12 = CDK12 (Homo sapiens, UniProt Q9NYV4); assay: CE-MS intact mass shift and MS/MS of the labeled peptide; assay type: cell-based
CDK9 [1] = molecular target: T1, CDK9 (Homo sapiens, UniProt P50750); assay: KINOMEscan profiling / biochemical kinase assay
CDK2 = CDK2 (Homo sapiens, UniProt P24941); assay: biochemical kinase inhibition
CDK7 = CDK7 (Homo sapiens, UniProt P50613); assay: biochemical kinase inhibition
CDK9 [2] = molecular target: T1, CDK9; assay: biochemical kinase inhibition

T1 sequence (P50750 whole entry): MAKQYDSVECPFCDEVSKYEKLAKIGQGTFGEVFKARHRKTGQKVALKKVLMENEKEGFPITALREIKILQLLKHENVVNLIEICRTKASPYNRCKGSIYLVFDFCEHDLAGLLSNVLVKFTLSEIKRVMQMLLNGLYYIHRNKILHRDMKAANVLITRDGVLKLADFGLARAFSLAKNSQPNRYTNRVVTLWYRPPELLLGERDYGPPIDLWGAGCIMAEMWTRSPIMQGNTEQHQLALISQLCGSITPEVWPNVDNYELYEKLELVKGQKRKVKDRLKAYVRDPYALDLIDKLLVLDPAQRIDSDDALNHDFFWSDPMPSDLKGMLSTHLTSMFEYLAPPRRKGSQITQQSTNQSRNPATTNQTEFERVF
Sequence of CDK7 (P50613 2-346): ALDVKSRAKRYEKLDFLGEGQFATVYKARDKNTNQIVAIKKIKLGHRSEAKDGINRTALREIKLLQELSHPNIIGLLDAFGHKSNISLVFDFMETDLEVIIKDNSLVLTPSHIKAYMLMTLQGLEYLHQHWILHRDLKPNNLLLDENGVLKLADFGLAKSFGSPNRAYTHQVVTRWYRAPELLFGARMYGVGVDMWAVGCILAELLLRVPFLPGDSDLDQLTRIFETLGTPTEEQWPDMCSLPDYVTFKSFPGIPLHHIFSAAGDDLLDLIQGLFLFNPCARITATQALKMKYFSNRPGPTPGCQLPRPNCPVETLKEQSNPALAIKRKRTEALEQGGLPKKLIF
Sequence of CDK7 (P51946 whole entry partner): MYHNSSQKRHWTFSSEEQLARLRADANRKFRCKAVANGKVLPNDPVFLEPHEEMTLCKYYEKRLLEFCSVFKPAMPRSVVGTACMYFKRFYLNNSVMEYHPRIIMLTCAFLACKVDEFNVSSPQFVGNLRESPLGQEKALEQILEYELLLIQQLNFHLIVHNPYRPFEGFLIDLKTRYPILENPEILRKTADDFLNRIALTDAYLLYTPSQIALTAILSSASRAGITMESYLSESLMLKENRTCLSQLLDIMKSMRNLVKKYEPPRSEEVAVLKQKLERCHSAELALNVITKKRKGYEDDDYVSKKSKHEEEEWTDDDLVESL
Sequence of CDK12 (Q9NYV4 whole entry): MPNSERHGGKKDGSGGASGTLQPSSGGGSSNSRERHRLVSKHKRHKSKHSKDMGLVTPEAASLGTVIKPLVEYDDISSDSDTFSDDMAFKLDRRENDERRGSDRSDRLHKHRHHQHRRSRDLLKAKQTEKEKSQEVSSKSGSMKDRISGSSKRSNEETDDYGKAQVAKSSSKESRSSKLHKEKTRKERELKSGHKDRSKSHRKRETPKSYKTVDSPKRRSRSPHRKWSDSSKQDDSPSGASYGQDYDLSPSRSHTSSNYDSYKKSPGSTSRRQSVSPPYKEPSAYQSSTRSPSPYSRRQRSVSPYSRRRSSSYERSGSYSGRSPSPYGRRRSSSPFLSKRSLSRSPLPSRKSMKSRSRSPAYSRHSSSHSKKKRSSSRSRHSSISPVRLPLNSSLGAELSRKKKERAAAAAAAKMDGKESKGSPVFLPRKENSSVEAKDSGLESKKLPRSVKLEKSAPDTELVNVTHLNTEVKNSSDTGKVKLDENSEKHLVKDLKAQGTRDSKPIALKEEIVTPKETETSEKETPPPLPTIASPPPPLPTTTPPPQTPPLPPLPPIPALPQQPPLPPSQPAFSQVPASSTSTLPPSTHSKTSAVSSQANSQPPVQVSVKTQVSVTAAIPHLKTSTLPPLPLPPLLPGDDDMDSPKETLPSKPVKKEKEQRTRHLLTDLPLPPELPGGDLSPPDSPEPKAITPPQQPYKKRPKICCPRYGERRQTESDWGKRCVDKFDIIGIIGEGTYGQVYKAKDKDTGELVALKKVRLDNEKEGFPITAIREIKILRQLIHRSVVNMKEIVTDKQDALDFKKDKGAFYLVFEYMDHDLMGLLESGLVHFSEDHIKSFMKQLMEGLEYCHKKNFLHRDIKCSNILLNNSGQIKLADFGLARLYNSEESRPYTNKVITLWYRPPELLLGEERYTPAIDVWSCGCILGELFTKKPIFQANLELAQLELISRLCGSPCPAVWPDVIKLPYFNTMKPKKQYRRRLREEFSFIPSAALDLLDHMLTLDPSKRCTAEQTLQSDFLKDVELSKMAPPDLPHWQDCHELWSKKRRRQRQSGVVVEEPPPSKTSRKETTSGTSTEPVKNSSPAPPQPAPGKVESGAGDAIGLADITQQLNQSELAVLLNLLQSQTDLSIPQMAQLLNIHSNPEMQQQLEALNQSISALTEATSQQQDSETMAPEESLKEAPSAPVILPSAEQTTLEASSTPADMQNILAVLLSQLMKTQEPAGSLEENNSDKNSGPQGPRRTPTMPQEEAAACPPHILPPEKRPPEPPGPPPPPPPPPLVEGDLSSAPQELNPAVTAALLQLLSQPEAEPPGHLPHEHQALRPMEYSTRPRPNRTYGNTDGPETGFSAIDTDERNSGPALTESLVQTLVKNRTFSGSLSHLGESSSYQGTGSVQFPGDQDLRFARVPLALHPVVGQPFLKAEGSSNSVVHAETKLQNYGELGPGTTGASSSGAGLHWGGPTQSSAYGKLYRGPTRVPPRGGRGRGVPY
Sequence of CDK12 (O75909 whole entry partner): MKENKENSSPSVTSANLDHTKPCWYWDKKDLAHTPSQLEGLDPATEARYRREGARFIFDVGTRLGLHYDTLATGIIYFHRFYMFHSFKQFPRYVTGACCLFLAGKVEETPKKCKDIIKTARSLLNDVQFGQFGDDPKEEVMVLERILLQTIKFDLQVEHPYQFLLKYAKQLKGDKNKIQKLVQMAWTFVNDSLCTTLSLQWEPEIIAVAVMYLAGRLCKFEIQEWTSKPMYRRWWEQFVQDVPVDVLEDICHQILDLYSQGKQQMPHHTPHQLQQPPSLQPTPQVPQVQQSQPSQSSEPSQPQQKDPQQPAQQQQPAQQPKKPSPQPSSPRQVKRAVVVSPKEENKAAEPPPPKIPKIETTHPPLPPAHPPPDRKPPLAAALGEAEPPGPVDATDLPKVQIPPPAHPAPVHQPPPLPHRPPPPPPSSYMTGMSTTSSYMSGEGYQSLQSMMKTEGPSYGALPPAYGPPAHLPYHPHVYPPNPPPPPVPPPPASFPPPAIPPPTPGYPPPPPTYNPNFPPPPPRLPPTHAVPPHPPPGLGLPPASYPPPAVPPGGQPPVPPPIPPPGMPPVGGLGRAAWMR

For C=CC(=O)Nc1cccc(Nc2cc(N3CCCC[C@H]3CCO)nc3c(CC)cnn23)c1 [E9, (S)-N-(3-(3-Ethyl-5-(2-(2-Hydroxyethyl)piperidin-1-yl)pyrazolo[1,5-a]pyrimidin-7-ylamino)phenyl)acrylamide], the “CE-MS intact mass shift and MS/MS of the labeled peptide; bio-THZ1 competition p” value (CDK12) was < 25 nM and the “KINOMEscan profiling / biochemical kinase assay” value (CDK9 [1]) was “E9 still retained fairly strong biochemical activity against CDK9”.

In the case of CCC(=O)Nc1cccc(Nc2cc(N3CCCC[C@H]3CCO)nc3c(CC)cnn23)c1 [E9-R, (S)-N-(3-((3-Ethyl-5-(2-(2-Hydroxyethyl)piperidin-1-yl)pyrazolo[1,5-a]pyrimidin-7-yl)amino)phenyl)propionamide], the biochemical kinase inhibition (CDK2) is reported as “E9-R exhibited improved biochemical inhibition of CDK2, CDK7, and CDK9 compared with E9”, the biochemical kinase inhibition (CDK7) is reported as “E9-R exhibited improved biochemical inhibition of CDK2, CDK7, and CDK9 compared with E9” and the biochemical kinase inhibition (CDK9 [2]) is reported as “E9-R exhibited improved biochemical inhibition of CDK2, CDK7, and CDK9 compared with E9”.
